{"source": "patent US10625229B2", "about": "“Device for preparing nano-carbon urea” (BEIJING NANO HI-TECH MATERIAL CO., LTD., priority 2016, dated 2020)", "key": {"corn": {"test_system": "corn", "assay": "Field experiment on application of nano-carbon urea in corn (2016, Inner Mongolia)", "format": "in vivo, corn variety Simon 568", "settings": "Pure N 20 kg/a unit of area (no nitrogen reduction)", "source_text": "The results of the experiment on the application of nano-carbon urea by bimeng academy of agricultural sciences in Inner Mongolia in 2016 are as follows: Nano-carbon urea is provided by the invention containing 46% nitrogen, and the amount of nano-carbon sol added is 10% of fertilizer weight, color: grey. Corn variety: Simon 568 Test site: Garden Canal Test Station of Agriculture and Animal Husbandry Science Research Institute, Bayannur City Random plot arrangement, 5 treatments, four repeats, […], mulch planting."}, "soybean": {"test_system": "soybean", "assay": "Soybean potted test of nano urea (Heilongjiang)", "format": "in vivo", "settings": "urea 10.8 g per pot (full dosage), 3 plants per pot", "source_text": "Soybean Experiment in Heilongjiang Agricultural Academy Test site: Heilongjiang Academy of Agricultural Sciences Laboratory Entrusted unit: Plant Nutrition and Environment Institute of Heilongjiang Agricultural Academy To determine the application effect and nitrogen utilization rate of nano-fertilizer on soybean and rice. Nano urea (46-0-0), calcium superphosphate (0-43-0), potassium sulfate (0-0-0-50), nano carbon sol content 0.57% solute, added amount is 10% of urea weight. Soybeans Potted Test There 3 plants per pot, repeat 6 times. N:P:K rating is 5:3.5:3, the results are as follows: […]"}}}
{"smiles": "NC(N)=O", "note": "[Common urea, urea]", "values": [{"measurement": "Yield kg/a unit of area", "setting": "corn", "value": "1002.98 kg/a unit of area"}, {"measurement": "Average yield g/pot", "setting": "soybean", "value": 50, "unit": "g/pot"}]}
